Experiment: Change in fluorescence intensity of lactosome encapsulating fluorescent dye due to change in external environment 1
Format: physicochemical
Settings: lactosome encapsulating 20 mol % of the dye; for fluorescence intensity in the SDS solution: 5 wt % SDS 1:1, room temperature 30 minutes; for fluorescence intensity in the BSA solution: 5 wt % albumin (BSA) 1:1, room temperature 30 minutes; for fluorescence intensity in the plasma: plasma from male ddY mice 1:1, room temperature 30 minutes
From the text: In FIGS. 2(A) to 2(D), the horizontal axis represents wavelength and the vertical axis represents fluorescence intensity.

Row | fluorescence intensity in the SDS solution | fluorescence intensity in the BSA solution | fluorescence intensity in the plasma | Compound
1 | recovered | recovered | recovered | CC1(C)C(/C=C/C2=C(Cl)C(=C/C=C3/N(CCCCCC(=O)O)c4ccc5ccccc5c4C3(C)C)/CCC2)=[N+](CCO)c2ccc3ccccc3c21 [IC7-1]
2 | recovered | recovered | recovered | CC1(C)C(/C=C/C=C/C=C/C=C2\N(CCCCS(=O)(=O)O)c3ccc4ccccc4c3C2(C)C)=[N+](CCCCS(=O)(=O)[O-])c2ccc3ccccc3c21 [ICG, indocyanine green]

Source: patent US9849197B2, “Switching-type fluorescent nanoparticle probe, and fluorescent molecular imaging method using same” (KYOTO UNIVERSITY, priority 2011, dated 2017)
